We go through seven molecules from patent US6887894B2, “Use of lipoic acid for improving the bioavailability of mineral salts” (BASF Aktiengesellschaft, priority 2000, dated 2005).

SMILES strings stand for the structures. Marks after values point to notes of the source that are not given here.

For data set [1] the following is noted: in vivo; cited from earlier work.
The conditions of data set [2]: in vivo; cited from earlier work. This is another data set of the same source.
The nature of data set [3]: Study 1/Study 2: bioavailability of Zn lipoate and ZnSO4 in rats (Example 4, Comparison Example 1). It is filed as in vivo. Particulars: diet with 0.4% NaPA, high dose 20 mg Zn/kg of feed, 28 days.
Description: Male Albino rats (Wistar) of an initial weight of 40 g were used. The animals were kept during each 28-day experimental period at a room temperature of 22° C., a relative humidity of approximately 55% and in a 12-hour light-dark cycle. The rats were housed individually in Makrolon cages with stainless steel bottoms which permitted controlled feed intake and quantitative collection of feces and urine. The feed was provided once a day at 8^00. The live mass of the rats was determined weekly, feces and urine were collected every day at 10^00 and 17^00. At the end of the experiment, the rats were decapitated after chloroform anesthesia. • 4.2 Description of the diets and experimental design
6 rats are used per experimental group. The mealy diets were administered ad lib. […] The control group (group 1) received the PA-free base diet.
The amounts of feces and urine produced separately in the metabolic cages are collected quantitatively every day and stored at −22° C. To avoid any losses of N in the urine collection vessels, 1 ml of 20% strength HCl (Suprapur) is added to each of the vessels daily. For further analysis, the sample material is freeze-dried for 48 h. • 4.3.2 Organ and tissue samples
The right femur, liver and testes are removed immediately after decapitation and complete exsanguination of the animals and the fresh mass is determined. The samples are sealed in plastic film and stored at −22° C. until further analysis. • 4.3.3 Blood
The rats are decapitated at the end of the experiment after complete narcosis with chloroform and the blood collected in heparinized plastic tubes. 40 I.U. of heparin sodium are introduced per ml of blood. […]
Zinc is determined by means of atomic absorption spectrophotometry (AAS) in an acetylene flame. • 4.5 Diagnosis of zinc status • 4.5.1 Determination of the plasma zinc concentration
The plasma zinc concentration is measured directly in the flame by means of AAS (Philips, PIJ 9400). […]
The enzyme activity is measured kinetically on a semimicroscale at a wavelength of 405 nm and 25° C. using a UV spectrophotometer. […]
Data set [4] is described as follows: Study 3: zootechnical parameters (feed intake, live weight) of growing rats. It is filed as in vivo. The settings on record: for LW Gain: 28 days; for Live weight d0: initial weight. On the procedure:
(§1) 36 male Wistar albino rats (Harlan Winkelmann, Borchen) having an initial weight of 47.0±2.63 g were randomly divided into 6 groups each of 6 animals and fed the diets specified in Table 7 (experimental design) and Section 5.2 over a period of 28 days. The animals were kept individually in Makrolon cages on stainless grids under standard conditions (22° C., 55% relative humidity, 12 hour light/dark rhythm). Feed and deionized drinking water were available to the experimental animals ad libitum. During the 2nd and 3rd experimental week (metabolism phase) feces were collected quantitatively. After completion of the experimental phase (day 28), the animals were decapitated under CO2— anesthesia, exsanguinated and the tissue to be analyzed was removed. Groups Ib, IIb and IIIb here are Example 5, while Groups Ia, IIa and IIIa are Comparison Example 2.
Parameters used to estimate Zn availability were the zootechnical parameters feed intake, live weight development and live weight increase, apparent Zn absorption, alkaline phosphatase activity in plasma, plasma and femur Zn concentration and metallothionin concentration in liver tissue. • 5.2 Experimental diets
The experimental animals were fed semisynthetic diets based on high-purity components (corn starch, egg albumin protein, sucrose, soybean oil and cellulose) over a period of 28 days (see Table 8 for composition of the base diet), the experimental diets differing with respect to the type of zinc compound supplemented, the absolute Zn concentration and the phytic acid content (0.4% PA from NaPA, Sigma-Aldrich, Steinheim) (see Table 7).
Zn supplements used were Zn ((R)-α-Lipoat)2(H2O)2 from Example 1 (Example 5) and Zn sulfate (ZnSO4.7 H2O analytical grade, Merck, Darmstadt) (Comparison Example 2). The Zn concentrations of the experimental diets Ia-IIb were set at a level of 10 mg/kg of diet estimated to be marginal for growing rats, in order to enable investigation of the availability of the Zn supplements under test in the suboptimun supply range.

The nature of data set [5]: Study 3: Zn intake, fecal excretion and apparent absorption of zinc. Particulars: rats. It is filed as in vivo. The protocol:
as §1
During the two-week metabolism phase, the rat feces were collected daily, adherent feed residues and other impurities were removed and the samples were stored at −20° C. At the end of the metabolism period the fecal weight was determined quantitatively and feces were then freeze-dried under vacuum over a period of 48 h (Gamma 1-20, Christ, Osterode). The dried samples were finely around using a domestic grinder (Moulinette electronic 89902) and stored at ambient temperature in PE bottles.
A sample aliquot of 1.5 g or the freeze-dried and ground fecal samples was dried for 24 h at 105° C. to remove residual water and then ashed in a muffle furnace at 450° C. for 21 h. The ash residue was dissolved by acid addition and then analyzed quantitatively. The Zn concentration in the fecal samples was determined by flame-AAS (Philips, PU 9400, Kassel). • 5.3.4 Diagnosis of Zn status
(§2) Zn absorption was calculated, without taking into account endogenous level as a difference between element […] and fecal excretion (=apparent absorption). Plasma Zn concentration was determined by AAS (Philips, PU 9400, Kassel). The samples were diluted with 0.1 M HCl in a ratio of 1:20 (v/v). The activity of the Zn metalloenzyme alkaline phosphatase (AP) (E.C. 3.1.3.1) wan assayed using the individual chemicals diethanolamine buffer and p-nitrophenyl phosphate according to the recommendations of the […] FÜR […] CHIMIE [German Clinical Chemistry Society] ([…] FÜR […] CHEMIE (1972). Standardmethode zur Bestimmung der Aktivität der alkalischen Phosphatase (AP) [Standard Method for Determining Alkaliur Phosphatase (AP) Activity]. Z. klin. Chem u. klin. Biochemie. 10, 191). • 5.3.5 Metallothionin in liver tissue

The nature of data set [6]: Study 3: Zn concentration in the femur. It is filed as in vivo. Particulars: rats, day 28. On the procedure: as §1
The ash solutions were prepared by the principle of wet ashing. The sample material was admixed with 10 ml of 65% strength HNO3 (Merck, Suprapur) and then boiled under a reflux condenser in a digestion apparatus (Gerhardt SMA-20, Bonn). This oxidatively degraded the organic matrix and completely mineralized the test material. The Zn concentration was determined in the ash solutions by flame-AAS (Philips, PU 9400, Kassel). • 5.3.3 Analysis of the fecal samples

The nature of data set [7]: Study 3: plasma Zn concentration. Particulars: rats, day 28. The format is in vivo. On the procedure: as §1
The samples were diluted with 0.1 M HCl in a ratio of 1:20 (v/v). […] CHIMIE [German Clinical Chemistry Society]

Data set [8] deals with alkaline phosphatase (AP) (E.C. 3.1.3.1). Nature of the data set: Study 3: alkaline phosphatase activity in plasma. It is filed as in vivo. Particulars: rats, day 28. On the procedure:
as §1, §2

The test system of another data set is metallothionin. Nature of the data set: Study 3: metallothionin in liver tissue. The format is in vivo. The settings on record: rats, day 28. On the procedure:
as §1
Total MT concentration in liver tissue was determined using the cadmium-binding method of EATON and TOAL (EATON, D. L., TOAL, B. F. (1982): Evaluation of the cadmium/hemoglobin affinity assay for the rapid determination of metallothionein in biological tissues. Toxicol Appl. Pharmacol. 66, 134-142) in a modification tested at the Giessen Institute (LEUNERT, V. (1994): Einfluβ von Zink sowie fetalem Kälberserum, bovinem Serumalbumin und calciummobilisierenden Rezeptoragonlsten auf Metallothionein in primär kultivierten Rattenhepatocyten [Effect of zinc and fecal calf serum, vine serum albumin and calcium-immobilizing receptor agonists on metallothionin in primary cultivations of rat hepatocytes]. Inaugural dissertation at the Institut für Tierernahrung und Ernährungse-physiologie [Institute of Animal Nutrition and Nutritional Physiology] of the University of Cicesen, Verlag Shaker, Aachen, PALLAUF et al. 1995). The protein content in liver homogenates war determined using the Lowry-Folin method (DAWSON, R. M. C. ELLIOTT, D C; JONES, K. M. (1986): Data for biochemical research, 3rd ed., Clarendon Press, New York, 543). • 5.3.5. Statistical analysis

The conditions of data set [9]: in vivo; cited from earlier work. This is another data set of the same source.
For data set [10] the following is noted: growing rats, suboptimal Zn supply, 1% citric acid added to phytic-acid-rich corn-germ-based diets; cited from earlier work.
The conditions of data set [11]: pigs; cited from earlier work.
For data set [12] the following is noted: in vivo; cited from earlier work. This is another data set of the same source.
The mark [13] stands for this setting: 10 ppm Zn, PA-free diet (group I).
Where [14] appears, read: 20 ppm Zn + 0.4% PA (group III).

Regarding `O=C1O[C@H]([C@@H](O)CO)C(O)=C1O` [Ascorbic acid], the “effect on bioavailability of inorganic iron” value in [1] is listed as “increases”. Moreover, in data set [2], the “effect on bioavailability of dietary zinc” value is listed as “does not change”.

As for `O.O.O.O.O.O.O.O=S(=O)([O-])[O-].[Zn+2]` [Zn sulfate, ZnSO4.7 H2O], in [3], the “zinc deficiency symptoms (anorexia, alopecia, depression of growth)” value was “still present”. For the same molecule, in data set [4] (10 ppm Zn + 0.4% PA (group II)), the “Feed intake Total” value was 166 ^a g/28d, the “Feed intake d1-d7” value is 37.4 ^a g, the “Feed intake d8-d14” value is on record as 42.3 ^a g and the “Feed intake d15-d21” value is on record as 40.5 ^a g. Moreover, in data set [4] (10 ppm Zn + 0.4% PA (group II)), the “Feed intake d22-d28” value is recorded as 45.3 ^a g, the “Live weight d7” value is 62.0^a g, the “Live weight d14” value is on record as 84.6^a g and the “Live weight d21” value is reported as 94.2^a g. In addition, in [4] (10 ppm Zn + 0.4% PA (group II)), the “Live weight d28” value is recorded as 106.5^a g, the “LW Gain” value is 60.7^a g and the “Live weight d0” value was found to be 45.8 g. Moreover, in [4] (setting [13]), the “Feed intake Total” value is recorded as 272 ^b g/28d, the “Feed intake d1-d7” value is 40.4 ^ab g, the “Feed intake d8-d14” value was 67.8 ^bc g and the “Feed intake d15-d21” value was 77.5 ^bc g. For the same molecule, in data set [4] (setting [13]), the “Feed intake d22-d28” value was 86.6 ^b g, the “Live weight d7” value is recorded as 58.1^ab g, the “Live weight d14” value is reported as 104.2^ab g and the “Live weight d21” value is on record as 141.3^bc g. In addition, in data set [4] (setting [13]), the “Live weight d28” value is 175.8^bc g, the “LW Gain” value was 128.5^bc g and the “Live weight d0” value came out at 47.3 x g. Besides, in data set [4] (setting [14]), the “Feed intake Total” value is given as 253 ^b g/28d, the “Feed intake d1-d7” value is listed as 49.6 ^ab g, the “Feed intake d8-d14” value is given as 61.0 ^b g and the “Feed intake d15-d21” value is 67.9 ^b g. Also, in data set [4] (setting [14]), the “Feed intake d22-d28” value is given as 74.8 ^b g, the “Live weight d7” value is given as 68.4^ab g, the “Live weight d14” value is 102.4^ab g and the “Live weight d21” value is reported as 132.3^b g. In [4] (setting [14]), the “Live weight d28” value was 161.9^b g, the “LW Gain” value is reported as 114.7^b g and the “Live weight d0” value is recorded as 47.2 g. For the same molecule, in data set [5] (10 ppm Zn + 0.4% PA (group II)), the “Apparent absorption of Zn” value is given as 43.0 ^a %, the “Apparent absorption of Zn (absolute)” value is 0.351 ^a mg/14 d and the “Fecal excretion of Zn” value is on record as 0.484 ^a mg/14 d. For the same molecule, in data set [5] (setting [13]), the “Apparent absorption of Zn” value is recorded as 76.4 ^b %, the “Apparent absorption of Zn (absolute)” value is recorded as 1.35 ^bc mg/14 d and the “Fecal excretion of Zn” value was 0.411 ^a mg/14 d. Moreover, in data set [5] (setting [14]), the “Apparent absorption of Zn” value is 43.9 ^a %, the “Apparent absorption of Zn (absolute)” value is 1.13 ^b mg/14 d and the “Fecal excretion of Zn” value was 1.43 ^b mg/14 d. Moreover, the “Zn concentration in Femur” value in [6] (10 ppm Zn + 0.4% PA (group II)) was 36.3 ^a μg/g FW. Also, in data set [6] (setting [13]), the “Zn concentration in Femur” value was 81.4 ^c μg/g FW. Besides, the “Zn concentration in Femur” value in data set [6] (setting [14]) is reported as 55.4 ^b μg/g FW. For the same molecule, in data set [7] (10 ppm Zn + 0.4% PA (group II)), the “Zn concentration in Plasma” value is reported as 0.57 ^a μg/ml. Besides, the “Zn concentration in Plasma” value in [7] (setting [13]) is given as 1.11 ^bc μg/ml. In addition, the “Zn concentration in Plasma” value in data set [7] (setting [14]) was 0.80 ^ac μg/ml. Also, the “Alkaline Phosphatase activity in plasma” value in data set [8] (10 ppm Zn + 0.4% PA (group II)) is on record as 216 ^a mU/ml Plasma. The “Alkaline Phosphatase activity in plasma” value in data set [8] (setting [13]) is recorded as 383 ^b mU/ml Plasma. Also, the “Alkaline Phosphatase activity in plasma” value in data set [8] (setting [14]) is reported as 347 ^b mU/ml Plasma. The “Metallothionin concentration in liver tissue” value (shortened to “Metallothionin concentration”) in the data set on metallothionin (10 ppm Zn + 0.4% PA (group II)) was 6.36 ng MT/mg Protein. In addition, in the data set with metallothionin (setting [13]), the “Metallothionin concentration” value stood at 8.08 ng MT/mg Protein. For the same molecule, the “Metallothionin concentration” value with metallothionin (setting [14]) was 7.58 ng MT/mg Protein.

Consider `[Cl-].[Cl-].[Zn+2]` [ZnCl2], for which, in data set [9], the “bioavailability of Zn2+ from organic or inorganic sources” value is “roughly comparable”.

For the molecule `O=C(O)CC(O)(CC(=O)O)C(=O)O` [citric acid], the “Zn status (plasma Zn concentration, alkaline phosphatase activity, metallothioneine concentration in the jejunum)” value in data set [10] is “moderate improvement”. In [11], the “effect on Zn utilization” value is “positive effects”.

With `O=C(O)C(=O)O` [oxalic acid], the “effects on Zn bioavailability (results of previous studies)” value in data set [12] is reported as “not uniform”.

In the case of `O=C(O)c1ccccn1` [picolinic acid], in [12], the “effects on Zn bioavailability (results of previous studies)” value is “not uniform”.

Consider `CCC(=O)[O-].CCC(=O)[O-].[Zn+2]` [zinc propionate], for which the “bioavailability of Zn2+ from organic or inorganic sources” value in data set [9] is recorded as “roughly comparable”.
